The values below come from PubChem BioAssay AID200 (DTP/NCI, 2004).

“And” between values parts separate entries of the source, which are not always exact repeats. Equal values may be shown once. Inconclusive results and toxic doses are left out. Where a SMILES comes first, the peptide text is derived from it.

For the experiment, the system named is B6C3F1 mice, B16 melanoma ip, median survival T/C. Kind of experiment: NCI In Vivo Anticancer Drug Screen. Data for tumor model B16 Melanoma (intraperitoneal) in B6C3F1 mice. The conditions noted are these: endpoint: median survival time, higher = longer survival. An outline of the steps: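 Mice bearing transplanted tumor were dosed with compound or vehicle, and survival was recorded. Activity is expressed as the treated-group measurement (T) divided by the vehicle control measurement (C).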

Where [1] appears, read: dose: 12.5 mg/kg/injection, schedule: Q01DX009 (ip), vehicle: Klucel (hydroxypropylcellulose) (HPC).
Setting [2] is: dose: 25.0 mg/kg/injection, schedule: Q01DX009 (ip), vehicle: Klucel (hydroxypropylcellulose) (HPC).
Setting [3] is: dose: 50.0 mg/kg/injection, schedule: Q01DX009 (ip), vehicle: Klucel (hydroxypropylcellulose) (HPC).
[4] abbreviates: dose: 100.0 mg/kg/injection, schedule: Q01DX009 (ip), vehicle: Klucel (hydroxypropylcellulose) (HPC).
Setting [5] is: dose: 200.0 mg/kg/injection, schedule: Q01DX009 (ip), vehicle: Klucel (hydroxypropylcellulose) (HPC).
Setting [6] is: dose: 6.25 mg/kg/injection, schedule: Q01DX009 (ip), vehicle: saline.
The mark [7] stands for this setting: dose: 12.5 mg/kg/injection, schedule: Q01DX009 (ip), vehicle: saline.
The mark [8] stands for this setting: dose: 25.0 mg/kg/injection, schedule: Q01DX009 (ip), vehicle: saline.
Where [9] appears, read: dose: 50.0 mg/kg/injection, schedule: Q01DX009 (ip), vehicle: saline.
[10] abbreviates: dose: 100.0 mg/kg/injection, schedule: Q01DX009 (ip), vehicle: saline.
Where [11] appears, read: dose: 200.0 mg/kg/injection, schedule: Q01DX009 (ip), vehicle: saline.

With `CSc1cc(C)[o+]c(C)c1`, the T/C reads like this: under setting [1], 106 % of control; under setting [2], 105 % of control; under setting [3], 106 % of control; under setting [4], 109 % of control; under setting [5], 101 % of control.
`COc1ccc(C(Nc2ccccc2)C(=O)c2ccccc2)cc1` (stereo not drawn): the T/C is, setting by setting: (dose: 6.25 mg/kg/injection, schedule: Q01DX009 (ip), vehicle: Klucel (hydroxypropylcellulose) (HPC)) 102 % of control; under setting [1], 96 % of control; under setting [2], 96 % of control.
Regarding `Nc1nc(SCc2ccccc2)c2ncn(C3OC(CO)CC3O)c2n1` (stereo not drawn), the T/C by setting is: under setting [3], 116 % of control; under setting [4], 107 % of control.
As for `CC(=O)O[C@@H]1CO[C@H]2O[C@H]3[C@@H](C(C=O)=C[C@H](O)[C@@H]4C5=C(C(C)C)CC[C@]5(C)CC[C@@]34C)[C@@]2(O)C1=O`, the T/C (dose: 0.75 mg/kg/injection, schedule: Q01DX009 (ip), vehicle: Klucel (hydroxypropylcellulose) (HPC)) is 89 % of control; the T/C (dose: 1.5 mg/kg/injection, schedule: Q01DX009 (ip), vehicle: Klucel (hydroxypropylcellulose) (HPC)) was 94 % of control; the T/C (dose: 3.0 mg/kg/injection, schedule: Q01DX009 (ip), vehicle: Klucel (hydroxypropylcellulose) (HPC)) is 88 % of control.
In the case of `CCCC(NC(=O)CNC(=O)OCc1ccccc1)C(=O)O` (stereo not drawn) (HELM PEPTIDE1{[O=C(OCc1ccccc1)[*:2]].G.[CCCC(N[*:1])C(=O)O]}$$$$V2.0), the T/C by setting is: under setting [4], 104 % of control; under setting [5], 92 % of control.
Regarding `COc1cc2oc3c(C)c(=O)cc4oc(-c5ccccc5)cc(c2c2c1CCC(c1ccccc1)O2)c43` (stereo not drawn), the T/C is, setting by setting: (dose: 0.85 mg/kg/injection, schedule: Q01DX009 (ip), vehicle: Klucel (hydroxypropylcellulose) (HPC)) 105 % of control; (dose: 1.75 mg/kg/injection, schedule: Q01DX009 (ip), vehicle: Klucel (hydroxypropylcellulose) (HPC)) 101 % of control; (dose: 3.5 mg/kg/injection, schedule: Q01DX009 (ip), vehicle: Klucel (hydroxypropylcellulose) (HPC)) 103 % of control; (dose: 7.0 mg/kg/injection, schedule: Q01DX009 (ip), vehicle: Klucel (hydroxypropylcellulose) (HPC)) 95 % of control and 106 % of control; (dose: 14.0 mg/kg/injection, schedule: Q01DX009 (ip), vehicle: Klucel (hydroxypropylcellulose) (HPC)) 97 % of control and 104 % of control; (dose: 28.0 mg/kg/injection, schedule: Q01DX009 (ip), vehicle: Klucel (hydroxypropylcellulose) (HPC)) 121 % of control.
For `CNc1nc(NC)nc(NC)n1`, the T/C by setting is: under setting [1], 91 % of control; under setting [2], 96 % of control; under setting [3], 100 % of control; under setting [4], 106 % of control.
As to `CCOC(=O)N1CCN(CCCCCCOc2ccc(C3CCCCC3)cc2)CC1`, the T/C by setting is: (dose: 1.56 mg/kg/injection, schedule: Q01DX009 (ip), vehicle: saline) 110 % of control; (dose: 3.13 mg/kg/injection, schedule: Q01DX009 (ip), vehicle: saline) 93 % of control; under setting [6], 101 % of control; under setting [7], 97 % of control and 105 % of control.
With `O=[N+]([O-])c1nccn1CC(O)CO` (stereo not drawn), the T/C was 91 % of control and 101 % of control under setting [7]; 102 % of control and 107 % of control under setting [8]; 95 % of control and 97 % of control under setting [9]; 111 % of control and 93 % of control under setting [10]; 95 % of control and 98 % of control under setting [11]; 91 % of control and 107 % of control (dose: 400.0 mg/kg/injection, schedule: Q01DX009 (ip), vehicle: saline).
With `O=C1c2ccccc2CCC1(Br)Br`, the T/C runs as follows: (dose: 2.5 mg/kg/injection, schedule: Q01DX009 (ip), vehicle: Klucel (hydroxypropylcellulose) (HPC)) 107 % of control; (dose: 10.0 mg/kg/injection, schedule: Q01DX009 (ip), vehicle: Klucel (hydroxypropylcellulose) (HPC)) 90 % of control.
Consider `CCCCCCCCCCCCCCC/C([O-])=N/[N+](C)(C)CC(C)O` (stereo not drawn), for which the T/C is, setting by setting: (dose: 25.0 mg/kg/injection, schedule: Q01DX001 (ip), vehicle: saline with Tween-80) 105 % of control; (dose: 50.0 mg/kg/injection, schedule: Q01DX001 (ip), vehicle: saline with Tween-80) 96 % of control; (dose: 50.0 mg/kg/injection, schedule: Q01DX001 (ip), vehicle: saline) 105 % of control; (dose: 100.0 mg/kg/injection, schedule: Q01DX001 (ip), vehicle: saline with Tween-80) 97 % of control; (dose: 200.0 mg/kg/injection, schedule: Q01DX001 (ip), vehicle: saline with Tween-80) 104 % of control; (dose: 200.0 mg/kg/injection, schedule: Q01DX001 (ip), vehicle: saline) 86 % of control. For the same compound, the T/C (dose: 400.0 mg/kg/injection, schedule: Q01DX001 (ip), vehicle: saline with Tween-80) is 100 % of control.
Regarding `Cc1ncc([N+](=O)[O-])n1CCO`, the T/C was 103 % of control (dose: 37.5 mg/kg/injection, schedule: Q01DX009 (ip), vehicle: Klucel (hydroxypropylcellulose) (HPC)); 100 % of control (dose: 75.0 mg/kg/injection, schedule: Q01DX009 (ip), vehicle: Klucel (hydroxypropylcellulose) (HPC)); 101 % of control (dose: 150.0 mg/kg/injection, schedule: Q01DX009 (ip), vehicle: Klucel (hydroxypropylcellulose) (HPC)); 92 % of control (dose: 300.0 mg/kg/injection, schedule: Q01DX009 (ip), vehicle: Klucel (hydroxypropylcellulose) (HPC)); 100 % of control (dose: 600.0 mg/kg/injection, schedule: Q01DX009 (ip), vehicle: Klucel (hydroxypropylcellulose) (HPC)).
Take `O=C(O)C1(NO)CCCCC1`: the T/C under setting [1] was 103 % of control and 105 % of control; the T/C under setting [2] is 111 % of control and 98 % of control; the T/C under setting [3] is 111 % of control and 105 % of control; the T/C under setting [4] is 110 % of control and 107 % of control; the T/C under setting [5] was 103 % of control and 108 % of control; the T/C (dose: 400.0 mg/kg/injection, schedule: Q01DX009 (ip), vehicle: Klucel (hydroxypropylcellulose) (HPC)) was 113 % of control and 106 % of control.
Take `O=C(O)CNC(=O)C(Cc1ccccc1)NC(=O)OCc1ccccc1` (stereo not drawn) (HELM PEPTIDE1{[O=C(OCc1ccccc1)[*:2]].[O=C(C(Cc1ccccc1)N[*:1])[*:2]].G}$$$$V2.0): the T/C by setting is: under setting [2], 94 % of control; under setting [3], 102 % of control; under setting [4], 86 % of control and 94 % of control.
For the compound `C1CNCOC1`, the T/C is 112 % of control and 95 % of control under setting [6]; 102 % of control and 104 % of control under setting [7]; 96 % of control and 101 % of control under setting [8]; 96 % of control and 103 % of control under setting [9]; 112 % of control under setting [10]; 105 % of control under setting [11].
As to `COc1cc(NS(C)(=O)=O)ccc1Nc1c2ccc(Cl)cc2nc2c(OC)cccc12`, the T/C reads like this: (dose: 2.0 mg/kg/injection, schedule: Q01DX005 (ip), vehicle: water) 165 % of control; (dose: 2.0 mg/kg/injection, schedule: Q01DX005 (iv), vehicle: water) 111 % of control; (dose: 4.0 mg/kg/injection, schedule: Q01DX001 (iv), vehicle: water) 101 % of control; (dose: 4.0 mg/kg/injection, schedule: Q01DX005 (ip), vehicle: water) 174 % of control; (dose: 8.0 mg/kg/injection, schedule: Q01DX001 (iv), vehicle: water) 102 % of control; (dose: 8.0 mg/kg/injection, schedule: Q01DX005 (ip), vehicle: water) 178 % of control. For the same compound, the T/C (dose: 16.0 mg/kg/injection, schedule: Q01DX001 (iv), vehicle: water) was 100 % of control.
On to `Nc1ccc2cc(S(=O)(=O)O)cc(O)c2c1N=Nc1ccc(F)cc1`, for which the T/C (dose: 25.0 mg/kg/injection, schedule: Q01DX009 (ip), vehicle: saline with Tween-80) is 95 % of control; the T/C (dose: 50.0 mg/kg/injection, schedule: Q01DX009 (ip), vehicle: saline with Tween-80) is 98 % of control; the T/C (dose: 100.0 mg/kg/injection, schedule: Q01DX009 (ip), vehicle: saline with Tween-80) was 90 % of control.
As to `O=c1nc(-c2ccco2)sc(=O)[nH]1`, the T/C is, setting by setting: under setting [2], 95 % of control; under setting [3], 99 % of control; under setting [4], 118 % of control; under setting [5], 112 % of control.
Regarding `Cc1[nH]ccc(=O)c1O`, the T/C reads like this: (dose: 16.0 mg/kg/injection, schedule: Q01DX009 (ip), vehicle: saline with Tween-80) 103 % of control; (dose: 32.0 mg/kg/injection, schedule: Q01DX009 (ip), vehicle: saline with Tween-80) 103 % of control; (dose: 64.0 mg/kg/injection, schedule: Q01DX009 (ip), vehicle: saline with Tween-80) 109 % of control; (dose: 128.0 mg/kg/injection, schedule: Q01DX009 (ip), vehicle: saline with Tween-80) 111 % of control; (dose: 256.0 mg/kg/injection, schedule: Q01DX009 (ip), vehicle: saline with Tween-80) 118 % of control.
